Measurements: patent publication US8796268B2, “Heteroaryls and uses thereof” (Millennium Pharmaceuticals, Inc., priority 2010, dated 2014)
Where two headings read alike, the source gives them in different places.

How the values were obtained:
Type in all cases: biochemical
[1] = target: T1, Human PI3K alpha (Homo sapiens, UniProt P42336); assay: Human PI3K alpha enzyme assay (HTRF)
T1 construct: His (N); host or cells: SF9 insect cells (baculovirus)

[2] = target: T2, Human PI3K gamma (Homo sapiens, UniProt P48736); assay: Human PI3K gamma enzyme assay (HTRF)
T2 construct: His (N); host or cells: SF9 insect cells (baculovirus)
From the text: (§1) The catalytic subunits of PI3Ks are cloned into either pDEST8(p110 alpha) or pDEST10(p110beta, p110delta, and p110gamma) as N-terminal His tagged fusion proteins using the Gateway system (Invitrogen, catalog#11804-010 for pDEST8 and 11806-015 for pDEST10). The sequences are verified before recombinant protein expression using the Baculovirus Expression System with Gateway® Technology. The accession numbers for the subunits are as follows: • p110 alpha (GB:U79143) • p110beta (GB: S67334) • p110delta (GB: U86453) • p110gamma (GB: X83368) • The regulatory subunits of PI3Ks are cloned into pDEST8 as un-tagged protein using the Gateway system (Catalog#11804-010). The sequences are verified before recombinant protein expression using the Baculovirus Expression System with Gateway® Technology. The accession numbers for the subunits are as following: • p85 alpha (GB: BC030815) • p101(GB: AB028925) • VPS34 (accession number GB:BC033004) is cloned into pDEST20—Thombin as N-terminal GST tagged fusion proteins using the Gateway system (Invitrogen, catalog#11804-013). The sequences are verified before recombinant protein expression using the Baculovirus Expression System with Gateway® Technology.
(§2) For expression of the p110 complexes, the p85 (MOI of 4) is co-infected with p110 alpha, beta, and delta respectively (1MOI) in SF9 cells and harvested at 60 hours post co-infection. P110 gamma was infected at 1 MOI and harvested at 60 hours post infection.
(§3) For purification, PI3Ks are purified by Ni-NTA Agarose (Qiagen #30250) followed by Mono Q 10/100 GL (Ge Healthcare #17-5167-01). VPS34 is purified by Glutathione Sepharose 4 Fast Flow (GE Healthcare #17-5132-03) followed by HiTrap Q (GE Healthcare #17-1153-01).
(§4) 0.5 uL compounds in DMSO are added to wells of a 384 well microtitre plate (Corning 3575). At room temperature: 10 ul PI3K reaction buffer (50 mM Hepes, 5 mM DTT, 150 mM NaCl, 10 mM beta-glycerophosphate, 10 mM MgCl2, 0.25 mM sodium cholate and 0.001% CHAPS, pH 7.00) containing ATP (25 uM, Promega) is added followed immediately by 10 ul PI3K reaction buffer containing di-C8 P1(4,5)P2 (3.5 uM, CellSignals) and PI3Kalpha (0.4875 nM, Millennium Protein Sciences Group) and the mixture is incubated with shaking at room temperature for 30 minutes. Then 5 ul PI3K stop mix (50 mM Hepes, 5 mM DTT, 150 mM NaCl, 0.01% Tween-20, 15 mM EDTA and 25 nM biotin-PI(3,4,5)P3 (Echelon) is added to quench the reaction followed immediately by addition of 5 ul HTRF detection mix (50 mM Hepes, 5 mM DTT, 150 mM NaCl, 0.01% Tween-20, 40 mM KF, 1.0 nM GST:GRP-1 PH domain (Millennium Protein Sciences Group), 15 nM Streptavidin-XL (CisBio) and 0.375 nM anti-GST Eu++ antibody (CisBio) at pH 7.00). The plates are then incubated for 1 hour at room temperature with shaking and then read on a BMG PheraStar Plus reader.
(§5) 2) Human PI3K beta, delta and gamma isoforms are tested using the procedure described for PI3K alpha above but with the following changes: PI3K beta (5.25 nM), PI3K delta (0.75 nM) and PI3K gamma (5 nM). All isoforms supplied by Millennium Protein Science Group.
(§6) For the assay methods described above, test compound percent inhibition, at various concentrations, is calculated relative to control (DMSO and EDTA) treated samples. Compound concentration versus percent inhibition curves are fitted to generate IC50 values. One skilled in the art will appreciate that the values generated either as percentage inhibition at a single concentration or IC50 values are subject to experimental variation.

[3] = target: T3, Human PI3K beta (Homo sapiens, UniProt P42338); assay: Human PI3K beta enzyme assay (HTRF)
T3 construct: His (N); host or cells: SF9 insect cells (baculovirus)
In short: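 Compounds were mixed with 25 uM ATP, then with 3.5 uM di-C8 PI(4,5)P2 and His-tagged PI3K isoform (β 5.25 nM, δ 0.75 nM, γ 5 nM) at pH 7.00. After 30 min at room temperature, EDTA stopped the reaction and PIP3 was measured by HTRF over 1 h.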

[4] = target: T4, Human PI3K delta (Homo sapiens, UniProt O00329); assay: Human PI3K delta enzyme assay (HTRF)
T4 construct: His (N); host or cells: SF9 insect cells (baculovirus)
From the text: as §1, §2, §3, §4, §5, §6

[5] = concentration not given, b1387 states 1.1 μM for PI3K α and β, read-out: p110 alpha Percent Inhibition
[6] = concentration not given, b1389 states 1.0 μM for PI3K δ and γ, read-out: p110 gamma Percent Inhibition
[7] = concentration not given, b1387 states 1.1 μM for PI3K α and β, read-out: p110 beta Percent Inhibition
[8] = concentration not given, b1389 states 1.0 μM for PI3K δ and γ, read-out: p110 delta Percent Inhibition
[9] = concentration not given, b1387 states 1.1 μM for PI3K α and β
[10] = concentration not given, b1389 states 1.0 μM for PI3K δ and γ

T4 sequence (O00329 whole entry): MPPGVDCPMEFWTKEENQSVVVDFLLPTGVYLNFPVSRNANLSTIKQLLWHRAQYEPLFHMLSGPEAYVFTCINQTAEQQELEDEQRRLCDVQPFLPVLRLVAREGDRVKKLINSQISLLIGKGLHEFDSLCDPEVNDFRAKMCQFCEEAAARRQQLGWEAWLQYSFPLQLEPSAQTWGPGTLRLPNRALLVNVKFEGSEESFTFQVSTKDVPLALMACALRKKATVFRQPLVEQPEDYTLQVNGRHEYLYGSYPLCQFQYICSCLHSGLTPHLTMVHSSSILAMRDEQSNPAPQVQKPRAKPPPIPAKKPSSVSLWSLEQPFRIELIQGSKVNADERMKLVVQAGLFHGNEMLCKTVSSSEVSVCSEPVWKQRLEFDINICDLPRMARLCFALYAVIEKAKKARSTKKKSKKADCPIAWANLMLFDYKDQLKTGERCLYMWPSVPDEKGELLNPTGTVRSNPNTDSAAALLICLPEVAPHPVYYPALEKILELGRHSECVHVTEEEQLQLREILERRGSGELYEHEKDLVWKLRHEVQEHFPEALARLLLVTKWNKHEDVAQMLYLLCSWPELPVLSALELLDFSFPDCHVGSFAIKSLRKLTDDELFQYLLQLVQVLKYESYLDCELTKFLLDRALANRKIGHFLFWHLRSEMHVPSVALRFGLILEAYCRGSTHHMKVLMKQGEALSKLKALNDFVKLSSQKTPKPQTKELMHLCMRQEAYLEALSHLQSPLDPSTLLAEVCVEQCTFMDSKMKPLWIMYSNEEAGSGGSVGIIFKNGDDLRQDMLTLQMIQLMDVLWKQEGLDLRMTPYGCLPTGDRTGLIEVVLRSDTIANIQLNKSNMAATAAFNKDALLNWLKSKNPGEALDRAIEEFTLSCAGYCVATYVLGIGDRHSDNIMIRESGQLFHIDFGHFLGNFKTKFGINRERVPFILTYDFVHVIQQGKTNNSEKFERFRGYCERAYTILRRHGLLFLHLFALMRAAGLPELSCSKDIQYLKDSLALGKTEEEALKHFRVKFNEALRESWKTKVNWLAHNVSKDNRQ
T4 sequence (P27986 whole entry partner): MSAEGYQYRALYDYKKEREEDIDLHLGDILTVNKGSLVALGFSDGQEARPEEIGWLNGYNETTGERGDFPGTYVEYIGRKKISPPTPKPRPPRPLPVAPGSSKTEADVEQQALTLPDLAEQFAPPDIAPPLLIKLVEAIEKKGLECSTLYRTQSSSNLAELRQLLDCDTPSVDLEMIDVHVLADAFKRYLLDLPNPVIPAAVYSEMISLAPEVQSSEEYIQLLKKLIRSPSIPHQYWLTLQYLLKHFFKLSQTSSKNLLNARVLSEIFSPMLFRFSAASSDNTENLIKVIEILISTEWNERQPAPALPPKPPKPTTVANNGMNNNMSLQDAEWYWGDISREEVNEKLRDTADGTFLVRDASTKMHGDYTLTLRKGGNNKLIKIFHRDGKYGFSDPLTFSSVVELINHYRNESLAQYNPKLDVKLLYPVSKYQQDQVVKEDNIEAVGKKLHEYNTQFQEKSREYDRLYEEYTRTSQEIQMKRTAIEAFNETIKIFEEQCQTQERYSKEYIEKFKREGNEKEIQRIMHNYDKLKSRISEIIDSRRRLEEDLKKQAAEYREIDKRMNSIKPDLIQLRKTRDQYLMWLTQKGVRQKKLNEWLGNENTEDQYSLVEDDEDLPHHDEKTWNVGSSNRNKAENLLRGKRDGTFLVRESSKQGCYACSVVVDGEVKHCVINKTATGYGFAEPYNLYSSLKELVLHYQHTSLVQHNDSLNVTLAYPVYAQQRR
T3 sequence (P42338 whole entry): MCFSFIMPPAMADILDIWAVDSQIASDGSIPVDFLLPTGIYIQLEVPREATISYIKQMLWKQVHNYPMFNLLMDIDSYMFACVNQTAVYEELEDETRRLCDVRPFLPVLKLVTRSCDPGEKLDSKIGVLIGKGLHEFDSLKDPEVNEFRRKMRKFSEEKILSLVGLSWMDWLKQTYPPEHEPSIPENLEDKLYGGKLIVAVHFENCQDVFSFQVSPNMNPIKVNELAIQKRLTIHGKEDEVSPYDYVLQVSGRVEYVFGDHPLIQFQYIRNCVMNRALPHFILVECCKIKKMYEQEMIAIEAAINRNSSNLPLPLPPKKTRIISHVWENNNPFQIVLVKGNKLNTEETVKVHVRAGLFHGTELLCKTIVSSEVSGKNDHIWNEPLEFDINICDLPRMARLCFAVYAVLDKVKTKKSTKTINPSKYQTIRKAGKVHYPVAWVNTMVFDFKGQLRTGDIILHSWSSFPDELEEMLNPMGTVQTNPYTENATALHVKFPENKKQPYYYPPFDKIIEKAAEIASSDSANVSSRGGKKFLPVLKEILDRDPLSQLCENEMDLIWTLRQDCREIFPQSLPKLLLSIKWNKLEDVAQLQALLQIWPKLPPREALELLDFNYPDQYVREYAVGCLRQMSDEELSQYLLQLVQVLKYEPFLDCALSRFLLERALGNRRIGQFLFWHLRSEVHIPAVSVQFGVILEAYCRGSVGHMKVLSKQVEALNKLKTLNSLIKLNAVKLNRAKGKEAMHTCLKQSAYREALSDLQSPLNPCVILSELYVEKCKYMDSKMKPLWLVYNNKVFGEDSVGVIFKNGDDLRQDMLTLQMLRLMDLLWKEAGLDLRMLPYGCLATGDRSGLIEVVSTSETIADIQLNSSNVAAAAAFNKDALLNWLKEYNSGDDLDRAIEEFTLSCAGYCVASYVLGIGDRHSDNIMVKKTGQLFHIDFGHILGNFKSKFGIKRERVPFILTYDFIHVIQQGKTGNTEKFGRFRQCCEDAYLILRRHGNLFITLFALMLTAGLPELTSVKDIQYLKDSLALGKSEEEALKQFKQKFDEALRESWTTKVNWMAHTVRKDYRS
T3 sequence (P27986 whole entry partner): as the sequence (P27986 whole entry partner) above
T2 sequence (P48736 whole entry): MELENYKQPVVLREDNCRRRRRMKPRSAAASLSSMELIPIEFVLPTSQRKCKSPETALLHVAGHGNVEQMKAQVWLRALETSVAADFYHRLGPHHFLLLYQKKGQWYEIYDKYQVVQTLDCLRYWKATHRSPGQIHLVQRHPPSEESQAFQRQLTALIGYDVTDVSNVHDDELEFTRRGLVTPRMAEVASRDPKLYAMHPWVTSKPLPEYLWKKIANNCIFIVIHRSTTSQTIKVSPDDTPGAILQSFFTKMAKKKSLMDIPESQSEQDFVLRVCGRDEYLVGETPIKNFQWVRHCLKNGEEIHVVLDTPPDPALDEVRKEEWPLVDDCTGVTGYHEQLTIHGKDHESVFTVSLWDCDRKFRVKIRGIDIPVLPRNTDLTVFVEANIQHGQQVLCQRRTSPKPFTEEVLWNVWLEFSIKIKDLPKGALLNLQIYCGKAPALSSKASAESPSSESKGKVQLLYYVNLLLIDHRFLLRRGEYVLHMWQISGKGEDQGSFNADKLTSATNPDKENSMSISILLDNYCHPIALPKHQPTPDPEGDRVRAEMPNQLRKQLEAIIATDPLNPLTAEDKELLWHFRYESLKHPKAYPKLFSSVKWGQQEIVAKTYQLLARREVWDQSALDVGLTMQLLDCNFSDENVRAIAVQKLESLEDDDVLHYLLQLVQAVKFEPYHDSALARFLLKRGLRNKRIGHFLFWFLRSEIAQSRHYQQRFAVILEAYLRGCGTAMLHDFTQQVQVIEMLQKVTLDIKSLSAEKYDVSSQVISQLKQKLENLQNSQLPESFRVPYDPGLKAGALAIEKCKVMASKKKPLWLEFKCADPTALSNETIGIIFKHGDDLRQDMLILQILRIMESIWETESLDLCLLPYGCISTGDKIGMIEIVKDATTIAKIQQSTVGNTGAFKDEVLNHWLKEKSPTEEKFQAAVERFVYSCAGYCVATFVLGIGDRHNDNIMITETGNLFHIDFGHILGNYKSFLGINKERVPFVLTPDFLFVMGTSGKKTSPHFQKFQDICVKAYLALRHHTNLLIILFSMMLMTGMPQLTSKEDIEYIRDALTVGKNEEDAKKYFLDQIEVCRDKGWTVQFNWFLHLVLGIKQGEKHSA
T1 sequence (P42336 whole entry): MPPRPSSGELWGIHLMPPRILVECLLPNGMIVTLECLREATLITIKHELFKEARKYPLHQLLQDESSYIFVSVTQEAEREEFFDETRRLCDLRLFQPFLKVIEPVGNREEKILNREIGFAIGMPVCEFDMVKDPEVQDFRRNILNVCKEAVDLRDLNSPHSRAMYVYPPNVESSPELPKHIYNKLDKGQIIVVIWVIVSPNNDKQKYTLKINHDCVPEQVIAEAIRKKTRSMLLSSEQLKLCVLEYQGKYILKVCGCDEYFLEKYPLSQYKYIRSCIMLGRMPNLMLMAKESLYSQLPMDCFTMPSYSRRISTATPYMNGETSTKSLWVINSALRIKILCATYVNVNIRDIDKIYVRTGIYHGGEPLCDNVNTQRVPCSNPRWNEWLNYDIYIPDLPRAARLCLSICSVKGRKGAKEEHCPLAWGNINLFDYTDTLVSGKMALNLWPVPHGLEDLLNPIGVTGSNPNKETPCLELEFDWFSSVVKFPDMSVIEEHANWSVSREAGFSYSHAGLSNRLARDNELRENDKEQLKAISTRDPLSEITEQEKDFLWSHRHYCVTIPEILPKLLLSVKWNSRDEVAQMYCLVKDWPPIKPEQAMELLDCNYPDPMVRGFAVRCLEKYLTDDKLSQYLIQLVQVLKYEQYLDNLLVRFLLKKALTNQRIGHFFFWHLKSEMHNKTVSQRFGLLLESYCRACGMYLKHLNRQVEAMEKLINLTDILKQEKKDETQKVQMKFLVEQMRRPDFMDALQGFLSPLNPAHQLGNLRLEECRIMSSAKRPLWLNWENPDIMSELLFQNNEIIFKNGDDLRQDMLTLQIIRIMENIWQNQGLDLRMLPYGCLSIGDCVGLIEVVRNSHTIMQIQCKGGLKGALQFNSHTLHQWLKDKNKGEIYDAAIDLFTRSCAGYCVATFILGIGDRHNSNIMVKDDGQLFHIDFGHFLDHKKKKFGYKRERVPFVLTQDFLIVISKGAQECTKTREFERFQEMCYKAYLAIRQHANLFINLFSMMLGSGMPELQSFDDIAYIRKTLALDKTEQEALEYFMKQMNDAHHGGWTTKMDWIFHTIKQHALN
T1 sequence (P27986 whole entry partner): as the sequence (P27986 whole entry partner) above

Compound | inhibition at 1.1 µM [1, 5] [%] | inhibition at 1 µM [2, 6] [%] | inhibition at 1.1 µM [3, 7] [%] | inhibition at 1 µM [4, 8] [%] | further results
CC(=O)Nc1cc(-c2cc([C@@H](c3ccc(Cl)cc3)N3CCC3)c(-c3nnc[nH]3)s2)ccn1 (single isomer, unassigned) [Compound 176] | 76 | 35 | 109 | 109 | 
CC(=O)Nc1cc(-c2cc(C(c3ccc(Cl)cc3)N3CCC[C@H]3CO)c(-c3nnc[nH]3)s2)ccn1 (single isomer, unassigned) [Compound 192] |  |  |  |  | p110 alpha Percent Inhibition [1, 9]: 48%; p110 gamma Percent Inhibition [2, 10]: 12%; p110 beta Percent Inhibition [3, 9]: 90%; p110 delta Percent Inhibition [4, 10]: 100%
CC(=O)Nc1cc(-c2cc([C@@H](c3ccc(Cl)cc3)N(C)C)c(-c3nnc[nH]3)s2)ccn1 (single isomer, unassigned) [Compound 204] | 70 | 25 | 101 | 90 | 
CC(=O)Nc1cc(-c2cc([C@H](c3ccc(Cl)cc3)N3CCC3)c(-c3nnc[nH]3)s2)ccn1 (single isomer, unassigned) [Compound 241] | 59 | 27 | 107 | 104 | 
CC(=O)Nc1cc(-c2cc(C(c3ccc(Cl)cc3)N3CCC[C@H]3CO)c(-c3nnc[nH]3)s2)ccn1 (single isomer, unassigned) [Compound 259] |  |  | 100 | 101 | p110 alpha Percent Inhibition [1, 9]: 69%; p110 gamma Percent Inhibition [2, 10]: 25%
CC(=O)Nc1cc(-c2cc([C@H](c3ccc(Cl)cc3)N(C)C)c(-c3nnc[nH]3)s2)ccn1 (single isomer, unassigned) [Compound 261] | 79 | 33 | 113 | 105 | 
CC(=O)Nc1cc(-c2cc(C(c3ccc(Cl)cc3)N3CCC[C@@H]3CO)c(-c3nnc[nH]3)s2)ccn1 (single isomer, unassigned) [Compound 283] |  |  |  |  | p110 alpha Percent Inhibition [1, 9]: 96%; p110 gamma Percent Inhibition [2, 10]: 18%; p110 beta Percent Inhibition [3, 9]: 98%; p110 delta Percent Inhibition [4, 10]: 99%
O=C(O)c1sc(N2CCOCC2)nc1Cc1ccc(Cl)cc1 [Compound 91, 4-(4-chlorobenzyl)-2-morpholinothiazole-5-carboxylic acid] |  |  |  |  | inhibition at 1.1 µM ([1]; at a 1.1 μM concentration, read-out: PI3Kα Percent Inhibition): 27%; IC50 ([1]; read-out: PI3Kalpha IC50): > 1 µM; inhibition at 1 µM ([2]; at a 1.0 μM concentration, read-out: PI3Kγ Percent Inhibition): 15.4%; inhibition at 1.1 µM ([3]; at a 1.1 μM concentration, read-out: PI3β Percent Inhibition): 105%; IC50 ([3]; read-out: PI3 Kbeta IC50): < 0.1 µM; inhibition at 1 µM ([4]; at a 1.0 μM concentration, read-out: PI3Kδ Percent Inhibition): 84.8%
CC(=O)Nc1cc(-c2cc(C(NCC3CNC3)c3ccc(Cl)cc3)c(-c3nnc[nH]3)s2)ccn1 (centres unmarked) [Compound 129] | 83 | 32 | 106 | 109 | 
COc1ccc(C(O)c2cc(-c3ccncc3)sc2-c2nnc[nH]2)cc1F (centres unmarked) [Compound 130] | 21 | 22 | 73 | 62 | 
CC(=O)Nc1cc(-c2sc(-c3nnc[nH]3)c([S+]([O-])c3ccc(Cl)cc3)c2C#N)ccn1 (centres unmarked) [Compound 131, N-{4-[4-[(4-chlorophenyl)sulfinyl]-3-cyano-5-(4H-1,2,4-triazol-3-yl)-2-thienyl]pyridin-2-yl}acetamide] | 75 | 5 | 78 | 80 | 
OC(c1cnc2ccccc2c1)c1cc(-c2ccncc2)sc1-c1nnc[nH]1 (centres unmarked) [Compound 132] | 45 | 53 | 103 | 77 | 
OC(c1nc(-c2ccccc2)cs1)c1cc(-c2ccncc2)sc1-c1nnc[nH]1 (centres unmarked) [Compound 133] | 84 | 26 | 101 | 74 | 
OC(c1ccc2c(c1)OC(F)(F)O2)c1cc(-c2ccncc2)sc1-c1nnc[nH]1 (centres unmarked) [Compound 134] | 21 | 8 | 72 | 44 | 
CC(=O)Nc1cc(-c2cc(C(NCC(F)(F)F)c3ccc(Cl)cc3)c(-c3nnc[nH]3)s2)ccn1 (centres unmarked) [Compound 135] | 78 | 8 | 87 | 99 | 
